Data: patent US8765447B2, “Fungal strain Beauveria sp. MTCC 5184 and a process for the preparation of enzymes therefrom” (Council of Scientific and Industrial Research, priority 2010, dated 2014)

Legend:
[1] = tested on: purified protease of Beauveria sp MTCC 5184; assay: Effect of urea on protease activity; format: biochemical; conditions: 6M urea, 28° C., 2 h
Description: This example illustrates the effect of urea on protease activity of Beauveria sp MTCC 5184. […] In presence of 6M urea, protease was stable up to 2 h and retained more than 85% of initial activity (FIG. 13).

[2] = tested on: protease of Beauveria sp MTCC 5184; assay: Stability of protease at 37° C. in water miscible solvents; format: biochemical; conditions: water miscible solvents (FIG. 10)
Description: FIG. 10: Stability of protease at 37° C. in presence of water miscible solvents.

[3] = tested on: purified protease of Beauveria sp MTCC 5184; assay: Stability of purified protease in organic solvents at 50° C.; format: biochemical; conditions: 25% (v/v) solvent, pH 7
Excerpt: Following organic solvents were used: acetone, 1-butanol, benzene, chloroform, dimethylsulphoxide, ethanol, hexane, isopropanol and methanol. […] Samples were removed at different time intervals and residual activity was estimated.

[4] = tested on: purified protease of Beauveria sp MTCC 5184; conditions: 3 M NaCl (FIG. 14), 28° C., 30 min
Description: Samples were removed at regular intervals and residual activity was measured at 50° C., pH 9.0 and expressed as percentage of activity without NaCl taken as 100%.

**Q.** With `NC(N)=O` [urea] as the compound, how does the initial activity retained [1] read?
**A.** more than 85%

**Q.** Which results are given for `CO` [Methanol, methanol]?
**A.** initial activity retained [2]: > 80%; Residual Activity (%) ([3]; 0 h): 100.00%; Residual Activity (%) ([3]; 1 h): 93.49%; Residual Activity (%) ([3]; 2 h): 46.09%

**Q.** With `[Cl-].[Na+]` [NaCl] as the compound, how does the stability [4] read?
**A.** 100%
